This assay has as its target recombinant DYRK1A kinase (Homo sapiens (Human), UniProt Q13627). Put plainly: DYRK1A kinase assay (Ser/Thr 18 peptide Z-lyte FRET). The conditions noted are these: DYRK1A kinase activity, Z-lyte Ser/Thr 18 peptide, 15 μM ATP; method text calls the value IC50; read-out: EC50 (the source's name). The class given is biochemical. The essentials:
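IC50 from non-linear fits of percent phosphorylation, derived from coumarin/fluorescein emission ratio after 1 h protease development. Kinase reaction: 1 h room temperature, 15 μM ATP, 4 μM Ser/Thr peptide 18, 0.25 μg/mL recombinant DYRK1A, duplicate 11-point 1:3 dilutions from 10 μM.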
For the molecule `CNC(=O)[C@]1(C)C[C@@H](Nc2nc(OC)c3c(-c4ccc5nc(C)n(CC(F)F)c5c4)ccn3n2)C1` [Compound 502, trans-3-((5-(1-(2,2-Difluoroethyl)-2-methyl-1H-benzo[d]imidazol-6-yl)-4-methoxypyrrolo[2,1-f][1,2,4]triazin-2-yl)amino)-N,1-dimethylcyclobutane-1-carboxamide], the IC50 was 1.4 nM. For the molecule `COc1nc(N[C@H]2C[C@](C)(C(=O)NC3CC3)C2)nn2ccc(-c3ccc4nc(C)n(CC(F)F)c4c3)c12` [Compound 503, trans-N-Cyclopropyl-3-((5-(1-(2,2-difluoroethyl)-2-methyl-1H-benzo[d]imidazol-6-yl)-4-methoxypyrrolo[2,1-f][1,2,4]triazin-2-yl)amino)-1-methylcyclobutane-1-carboxamide], the IC50 is 2.3 nM. With `COc1nc(N[C@H]2C[C@](C)(C(=O)NC3CC(F)(F)C3)C2)nn2ccc(-c3ccc4nc(C)n(CC(F)F)c4c3)c12` [Compound 504, trans-N-(3,3-Difluorocyclobutyl)-3-((5-(1-(2,2-difluoroethyl)-2-methyl-1H-benzo[d]imidazol-6-yl)-4-methoxypyrrolo[2,1-f][1,2,4]triazin-2-yl)amino)-1-methylcyclobutane-1-carboxamide], the IC50 turned out to be 1.4 nM. For `COc1nc(N[C@H]2CN(C3COC3)C[C@H]2F)nn2ccc(-c3ccc4nc(C)n(CC(F)F)c4c3)c12` [Compound 505, 5-(1-(2,2-Difluoroethyl)-2-methyl-1H-benzo[d]imidazol-6-yl)-N-((3S,4R)-4-fluoro-1-(oxetan-3-yl)pyrrolidin-3-yl)-4-methoxypyrrolo[2,1-f][1,2,4]triazin-2-amine], the IC50 was determined as 3.8 nM. `COc1nc(N[C@@H]2CN(C3COC3)C[C@@H]2F)nn2ccc(-c3ccc4nc(C)n(CC(F)F)c4c3)c12` [Compound 506, 5-(1-(2,2-Difluoroethyl)-2-methyl-1H-benzo[d]imidazol-6-yl)-N-((3R,4S)-4-fluoro-1-(oxetan-3-yl)pyrrolidin-3-yl)-4-methoxypyrrolo[2,1-f][1,2,4]triazin-2-amine]: the IC50 turned out to be 2.3 nM. On to `COc1nc(NC2CCC(=O)N(C)C2)nn2ccc(-c3ccc4nc(C)n(CC(F)F)c4c3)c12` (stereo not shown) [Compound 507, 5-((5-(1-(2,2-Difluoroethyl)-2-methyl-1H-benzo[d]imidazol-6-yl)-4-methoxypyrrolo[2,1-f][1,2,4]triazin-2-yl)amino)-1-methylpiperidin-2-one], for which the IC50 came to 3.1 nM. As for `Cc1nc2ccc(-c3ccn4nc(N[C@H]5CC[C@](C)(O)CC5)nc(OC5COC5)c34)cc2n1CC(F)F` [Compound 508, (1r,4r)-4-((5-(1-(2,2-Difluoroethyl)-2-methyl-1H-benzo[d]imidazol-6-yl)-4-(oxetan-3-yloxy)pyrrolo[2,1-f][1,2,4]triazin-2-yl)amino)-1-methylcyclohexan-1-ol], the IC50 turned out to be 24.3 nM. Next, `COc1nc(N[C@H]2C[C@@](C)(O)C2)nn2ccc(-c3cc(F)c4nc(C)n(CC(F)F)c4c3)c12` [Compound 509, cis-3-((5-(1-(2,2-Difluoroethyl)-4-fluoro-2-methyl-1H-benzo[d]imidazol-6-yl)-4-methoxypyrrolo[2,1-f][1,2,4]triazin-2-yl)amino)-1-methylcyclobutan-1-ol]: 1.4 nM; `COc1nc(N[C@@H]2CN(C(C)=O)C[C@@H]2F)nn2ccc(-c3cc(F)c4nc(C)n(CC(F)F)c4c3)c12` [Compound 513, 1-((3R,4S)-3-((5-(1-(2,2-Difluoroethyl)-4-fluoro-2-methyl-1H-benzo[d]imidazol-6-yl)-4-methoxypyrrolo[2,1-f][1,2,4]triazin-2-yl)amino)-4-fluoropyrrolidin-1-yl)ethan-1-one]: 2.8 nM. On to `COc1nc(N[C@H]2CCN(CCO)C[C@H]2F)nn2ccc(-c3cc(F)c4nc(C)n(CC(F)F)c4c3)c12` [Compound 519, 2-((3R,4S)-4-((5-(1-(2,2-Difluoroethyl)-4-fluoro-2-methyl-1H-benzo[d]imidazol-6-yl)-4-methoxypyrrolo[2,1-f][1,2,4]triazin-2-yl)amino)-3-fluoropiperidin-1-yl)ethan-1-ol], for which the IC50 stood at 2.7 nM.

For the origin of these results see patent US20240002391A1, “4-ALKOXYPYRROLO[2,1-F][1,2,4]TRIAZINES AND PREPARATION AND USES THEREOF” (BioSplice Therapeutics, Inc., priority 2022, published 2024).
